# Earlier results in patent publication US20230285287A1, “PHARMACEUTICAL COMPOSITIONS” (DOUGLAS PHARMACEUTICALS LIMITED, priority 2019, published 2023).
# “Also recorded” adds a separate entry of the source.
# Conditions: known from the literature (Donato et al.)
smiles,measurement,value
"CC(C)c1nc(CN(C)C(=O)N[C@H](C(=O)N[C@@H](Cc2ccccc2)C[C@H](O)[C@H](Cc2ccccc2)NC(=O)OCc2cncs2)C(C)C)cs1 [Ritonavir, 1,3-thiazol-5-ylmethyl N-[(2S,3S,5S)-3-hydroxy-5-[[(2S)-3-methyl-2-[[methyl-[(2-propan-2-yl-1,3-thiazol-4-yl)methyl]carbamoyl]amino]butanoyl]amino]-1,6-diphenylhexan-2-yl]carbamate]",chemical stability / degradation route,thermolytically driven; also recorded: particularly prone to hydrolysis; also recorded: oxygen labile
